What was measured:
tubulin [1] = experiment: inhibition of tubulin polymerization in vitro (turbidity at 350 nm); assay type: biochemical; settings: read-out: IC50 (concentration required to inhibit tubulin polymerization by 50%); mean ± S.D.; method of Example 1
Protocol: Anti-mitotic activity can be evaluated by testing the ability of an estradiol derivative to inhibit tubulin polymerization and microtubule assembly in vitro. Microtubule assembly is followed in a Gilford recording spectrophotometer (model 250 or 2400S) equipped with electronic temperature controllers. A reaction mixture (all concentrations refer to a final reaction volume of […]) contains 1.0 M monosodium glutamate (ph 6.6), 1. omg/ml (10 μM) tubulin, 1.0 mM MgCl2, 4% (v/v) dimethylsulfoxide and 20-75μM of a composition to be tested. The 0.24 ml reaction mixtures are incubated for 15 min. at 37° C. and then chilled on ice. After addition of 10p1 2.5mM GTP, the reaction mixture is transferred to a cuvette at 0° C., and a baseline established. At time zero, the temperature controller of the spectrophotometer is set at 37° C. Microtubule assembly is evaluated by increased turbity at 350 nm.
A. Each reaction mixture (all concentrations refer to the final reaction volume of 0.25 ml) contained 1.0 M monosodium glutamate (pH 6.6), 1.0 mg/ml (10 μM) tubulin, 1.0 mM MgCl2, 4% (v/v) dimethylsulfoxide, and either 0 (curve 1), 20μM (curve 2), 40 μM (curve 3), or 75 μM (curve 4) 2-methoxyestradiol. The 0.24 ml reaction mixtures were incubated for 15 min. at 37° C and chilled on ice. After addition of 10 μl of 2.5 mM GTP the reaction mixtures were transferred to cuvettes held at 0° C., and baselines were established. At time zero the temperature controller was set at 37° C. At the times indicated by the vertical dashed lines the temperature controller was set at the indicated temperatures.
B. Each reaction mixture contained 0.8 M monosodium glutamate (pH 6.6), 1.2 mg/ml (12 μM) tubulin, 4% (v/v) dimethylsulfoxide, and either 0 (curve 1), 1.0 FM (curve 2), 2.0 ,M (curve 3), 3.0 μM (curve 4), or 4.0 μM (curve 5) 2-methoxyestradiol. The 0.24 ml reaction mixtures were incubated for 15 min. at 26° C. and chilled on ice. After addition of 10μl of 10 mM GTP the reaction mixtures were transferred to cuvettes held at 0° C., and baselines were established. At time zero the temperature controller was set at 26° C. At the time indicated by vertical dashed line the temperature controller was set at 0° C.
The method is given in Example 1.
S.D., standard deviation.

tubulin [2] = experiment: inhibition of [3H]colchicine binding to tubulin; settings: 100 μM inhibitor, 1.0 μM tubulin, 2 μM [3H]colchicine, 10 min at 37° C.; ± S.D.
Protocol: Incubation was for 10 min. at 37° C.
Incubation was for 10 mi. at 37° C. Average values obtained in three independent experiments are presented in the table, except for 2-methoxyestrone, which was only examined twice. S.D., standard deviation.

tubulin [3] = experiment: tubulin activities of 2-ME analogs (Table 3); assay type: biochemical
[4] = system: 8 human breast cancer cell lines; experiment: human tumor cell panel assay in vitro, breast panel; assay type: cell-based; design: key to Most Sensitive Cell Lines in Human Tumor Cell Panel Assay: Breast: Most sensitive cell panes are marked with ✓; settings: for Most Sensitive Cell Lines in Human Tumor Cell Panel Assay: Breast: 8 cell lines, only MCF-7 and T-47D express estrogen and progesterone receptors
Text: (§1) The tubulin activities, breast cancer cell line activities, and the cell panels most sensitive to selected analogs are shown in Tables 3 and 4.

[5] = molecular target: T1, rat uterine cytosolic estrogen receptor (Rattus norvegicus, UniProt P06211); experiment: Relative Binding Affinity to estrogen receptor; settings: at 0°; 3H-Estradiol=100
T1 construct: from tissue; host or cells: rat uterine cytosol (per the result head)
T1 sequence (P06211 1-600): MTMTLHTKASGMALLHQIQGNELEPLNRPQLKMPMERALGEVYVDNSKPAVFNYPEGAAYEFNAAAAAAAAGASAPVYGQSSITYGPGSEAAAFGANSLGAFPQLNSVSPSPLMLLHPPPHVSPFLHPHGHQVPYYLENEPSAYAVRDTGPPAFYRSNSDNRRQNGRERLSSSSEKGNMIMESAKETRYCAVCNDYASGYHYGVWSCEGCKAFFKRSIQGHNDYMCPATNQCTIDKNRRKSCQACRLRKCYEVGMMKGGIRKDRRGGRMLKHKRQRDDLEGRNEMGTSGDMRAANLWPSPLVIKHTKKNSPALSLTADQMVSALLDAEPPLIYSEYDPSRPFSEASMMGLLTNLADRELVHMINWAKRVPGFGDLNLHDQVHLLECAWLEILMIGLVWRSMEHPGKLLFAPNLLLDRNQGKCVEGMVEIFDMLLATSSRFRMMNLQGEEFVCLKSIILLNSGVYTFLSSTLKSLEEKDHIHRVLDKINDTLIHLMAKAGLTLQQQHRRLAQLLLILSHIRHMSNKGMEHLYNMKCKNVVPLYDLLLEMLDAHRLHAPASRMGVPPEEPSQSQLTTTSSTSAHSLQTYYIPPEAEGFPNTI
Text: as §1

CNS cell lines = experiment: Human Tumor Cell Panel Assay in vitro, CNS panel; assay type: cell-based; design: key: Most sensitive cell panes are marked with ✓
Text: as §1

Melanoma cell lines = experiment: Human Tumor Cell Panel Assay in vitro, melanoma panel; assay type: cell-based; design: key: Most sensitive cell panes are marked with ✓
Text: as §1

Renal cell lines = experiment: Human Tumor Cell Panel Assay in vitro, renal panel; assay type: cell-based; design: key: Most sensitive cell panes are marked with ✓
Text: as §1

[6] = system: Ovarian cell lines (especially OVCAR-3); experiment: Human Tumor Cell Panel Assay in vitro, ovarian panel; assay type: cell-based; design: key: Most sensitive cell panes are marked with ✓
Text: as §1

[7] = system: MDA-MB-435 estrogen receptor-negative human breast carcinoma cells; experiment: In Vivo Tumor Growth Inhibition; design: species or system SCID mice
Protocol: To determine the antitumor activity of 2-ME and derivatives, SCID mice were s.c. inoculated with 10^6 MDA-MB-435 estrogen receptor-negative human breast carcinoma cells. Treatment was initiated on day 12 when tumor volumes reached 75-100 mm3 in volume. Drugs were suspended in 0.5 g/100 ml of carboxymethylcellulose with sterile glass beads, vortexed for 5 minutes, and administered p.o. in a volume of 0.1 ml. Control mice received 0.1 ml of carboxymethylcellulose p.o. Serial caliper measurements of perpendicular diameters were used to calculate tumor volume using the following: (shortest diameter)^2×(longest diameter)×0.52. T/C was calculated as the volume of treated tumors over the volume of control tumors. A smaller number indicates a greater inhibition of tumor growth.

[8] = system: corneal neovascularization; experiment: Mouse Corneal Micropocket Assay; assay type: in vivo, mice; settings: 150 mg/kg, daily oral, 5 days
Protocol: Five- to 7-week-old SCID female mice were obtained from Massachusetts General Hospital (Boston, Mass.), Immunocompetent 7-9-week-old female C57BL/6 mice were obtained from ARCH Technical Services, Children's Hospital (Boston, Mass.). All animal studies were conducted according to protocols approved by the Animal Ethics Committee of Children's Hospital. Animals were anesthetized in a methoxyflurane (Pittman-Moore, Mundelein, Ill.) chamber prior to all procedures and were observed until fully recovered. Animals were sacrificed by a lethal dose of methoxyflurane.
Mouse Corneal Micropocket Assay To study the effect of microtubule inhibitors on angiogenesis in vivo, a model of angiogenesis in the mouse cornea was used in […] mice as described previously (Kenyon, B. B., Voest, E. E., Chen, C. C., Folkman, J., and D'Amato, R. J. A model of angiogenesis in the mouse cornea. Invest. Ophthalmol. & Visual Sci., 76: 1625-1632, 1996). In brief, after animals were anesthetized, corneal micropockets were created in both eyes with a modified von Graefe cataract knife. Into each pocket, a 0.4 mm ×0.4 mm×0.2 mm sucrose aluminum sulfate (Bukh Meditee, Copenhagen, Denmark) pellet coated with hydron polymer type NCC (IHN Sciences, New Brunswick, N.J.) containing 80 ng of bFGF or 160 ng of human recombinant […] (gift from Reprogenesis, Cambridge, Mass.) was implanted 1.0-1.2 mm from the limbal vessels (bFGF experiments) or 0.5-0.7 mm from the limbus (VEGF experiments). Erythromycin ointment (E. Fougera, Melville, N.Y.) was applied to each operated eye. The sucralfate acts to stabilize the growth factor and to slow its release from the hydron. Before testing each drug in this assay, we found the maximal dose that could be administered daily for 5 consecutive days without producing signs of toxicity (i.e., no hair loss, diarrhea, infection, lethargy, or weight loss). The treated groups received daily oral administration for 5 consecutive days of the stated dosage of 2-ME or a derivative thereof suspended in 0.5 g/100 ml of carboxymethylcellulose.
Treatment was started on the day of pellet implantation. […] For this purpose, the eyes of the mice were examined by slit-lamp biomicroscopy. Area of corneal neovascularization was calculated using a modified formula for a half-ellipse: Area (mm^2)=[π×clock hours×length (mm)×0.2 mm]. This formula provides the most accurate approximation of the area of neovascularization that grows toward the pellet. (Kenyon, B. B., Voest, E. E., Chen, C. C., Folkman, J., and D'Amato, R. J. A model of angiogenesis in the mouse cornea. Invest. Ophthalmol. & Visual Sci., 76: 1625-1632, 1996).

SMILES | IC50 (tubulin [1]) [nM] | Percentage Inhibition of colchicine binding to tubulin (tubulin [2]) [%] | IC50 (tubulin [3]) [nM] | RBA, Relative Binding Affinity to rat uterine cytosolic estrogen receptor [5] | Most Sensitive Cell Lines in Human Tumor Cell Panel Assay: Breast [4] | Most Sensitive Cell Lines in Human Tumor Cell Panel Assay: CNS (CNS cell lines) | Most Sensitive Cell Lines in Human Tumor Cell Panel Assay: Melanoma (Melanoma cell lines) | Most Sensitive Cell Lines in Human Tumor Cell Panel Assay: Renal (Renal cell lines) | Most Sensitive Cell Lines in Human Tumor Cell Panel Assay: Ovarian [6] | inhibition in corneal pocket assay [8] [%] | further results
COc1cc2c(cc1O)CCC1C2CCC2(C)C(=O)CCC12 (stereo not shown) [2-Methoxyestrone, reference compound] | 8800 ± 1000 | 57 ± 6 | – | – | – | – | – | – | – | – | –
C#CC1(O)CCC2C3CCc4cc(O)ccc4C3CCC21C (stereo not shown) [17-Ethynylestradiol, reference compound] | 10000 ± 2000 | 50 ± 7 | – | – | – | – | – | – | – | – | –
CCNc1cc2c(cc1O)CCC1C2CCC2(C)C(O)CCC12 (stereo not shown) [NSC 673652] | – | – | ~2000 | 0.35 | – | – | – | – | – | – | IC50 ([4]; Homo sapiens, cell panel assay in vitro, two values per cell separated by /, read-out: Tumor Panel: Average log IC50(Molar) against 8 human breast cancer cell lines (converted)): 2000 nM; Tumor Panel: Average log IC50(Molar) against 8 human breast cancer cell lines ([4]; cell panel assay in vitro, two values per cell separated by /): −5.7/−5.7 log Molar
CCOc1cc2c(cc1O)C(=NO)CC1C2CCC2(C)C(O)CCC12 (stereo not shown) [NSC 680185] | – | – | – | <0.001 | ✓ | ✓ | ✓ | ✓ | ✓ | – | T/C (volume of treated tumors over volume of control tumors) ([7]; 150 mg/kg p.o., duration not stated): 0.9
C[C@]12CC[C@@H]3c4cc(OCC(F)(F)F)c(O)cc4/C(=N/O)C[C@H]3[C@@H]1CC[C@@H]2O [NSC 681683] | – | – | 500 | <0.0074 | ✓ | ✓ | ✓ | – | ✓ | 22 | tumor growth inhibition, comparison in words (FIG. 4) ([7]; FIG. 4): performed approximately as well as the derivative 681684
CCOc1cc2c(cc1O)C(=NOC)CC1C2CCC2(C)C(O)CCC12 (stereo not shown) [NSC 683125] | – | – | – | <0.001 | ✓ | – | ✓ | ✓ | – | 23 | –
